Experimental data: patent US7122651B1, “Nucleic acid molecules encoding opioid growth factor receptors” (priority 1998, dated 2006)

Assays:
[1] = target: T1, nuclear homogenates of human pancreatic tumor cells (PANC-1) (Homo sapiens, UniProt Q9NZT2); assay: Competition for binding of [^3H]-[Met^5]-enkephalin in PANC-1 nuclear homogenates; details: for competition for [^3H][Met^5]-enkephalin binding: 1 or 2 nM radioligand
T1 construct: host or cells: PANC-1; nuclear (P1) homogenates, and P2, P3 and S3 fractions in the fractionation study
T1 sequence (Q9NZT2 1-677): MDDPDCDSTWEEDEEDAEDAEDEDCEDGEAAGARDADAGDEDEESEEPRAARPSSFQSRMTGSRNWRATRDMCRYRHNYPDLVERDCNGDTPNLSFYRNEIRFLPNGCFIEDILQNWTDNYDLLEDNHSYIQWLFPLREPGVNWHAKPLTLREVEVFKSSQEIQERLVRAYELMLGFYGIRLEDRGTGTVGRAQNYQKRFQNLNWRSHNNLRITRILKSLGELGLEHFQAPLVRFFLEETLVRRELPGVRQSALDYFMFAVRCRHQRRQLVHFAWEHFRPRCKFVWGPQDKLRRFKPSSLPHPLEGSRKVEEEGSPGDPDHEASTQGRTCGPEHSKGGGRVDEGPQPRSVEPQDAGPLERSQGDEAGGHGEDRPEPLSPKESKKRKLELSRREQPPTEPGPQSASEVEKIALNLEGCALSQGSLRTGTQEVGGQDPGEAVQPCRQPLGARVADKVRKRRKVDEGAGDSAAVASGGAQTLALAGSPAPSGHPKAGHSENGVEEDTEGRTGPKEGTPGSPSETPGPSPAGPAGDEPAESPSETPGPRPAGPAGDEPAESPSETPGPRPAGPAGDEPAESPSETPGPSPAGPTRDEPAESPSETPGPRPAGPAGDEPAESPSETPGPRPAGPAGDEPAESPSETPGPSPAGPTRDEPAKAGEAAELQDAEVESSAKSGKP
Method: Each concentration was run in triplicate and every compound was tested twice.
(§1) Analysis and statistics. Receptor binding data were analyzed with either the Lundon I (Saturation Isotherm Binding Analysis) computer program (Lundon Software, Cleveland, Ohio) or GraphPad Prism software. Both programs utilize nonlinear least-squares regression. Binding isotherms and Scatchard plots were computed directly by the programs. […] Comparisons of Bmax and Kd values were made using analysis of variance and posthoc Newman-Keuls tests.
Competition experiments using 1 or 2 nM [^3H]

[2] = target: rat OGFr 12-GST fusion protein (cDNA clone #12); assay: Saturation binding of [^3H]-[Met^5]-enkephalin to purified rat OGFr GST fusion protein; details: mean±SE, 6 assays, 22° C., 30 min, read-out: binding affinity (Kd)
Chain of rat OGFr 12-GST fusion protein (cDNA clone #12) (as listed by the source): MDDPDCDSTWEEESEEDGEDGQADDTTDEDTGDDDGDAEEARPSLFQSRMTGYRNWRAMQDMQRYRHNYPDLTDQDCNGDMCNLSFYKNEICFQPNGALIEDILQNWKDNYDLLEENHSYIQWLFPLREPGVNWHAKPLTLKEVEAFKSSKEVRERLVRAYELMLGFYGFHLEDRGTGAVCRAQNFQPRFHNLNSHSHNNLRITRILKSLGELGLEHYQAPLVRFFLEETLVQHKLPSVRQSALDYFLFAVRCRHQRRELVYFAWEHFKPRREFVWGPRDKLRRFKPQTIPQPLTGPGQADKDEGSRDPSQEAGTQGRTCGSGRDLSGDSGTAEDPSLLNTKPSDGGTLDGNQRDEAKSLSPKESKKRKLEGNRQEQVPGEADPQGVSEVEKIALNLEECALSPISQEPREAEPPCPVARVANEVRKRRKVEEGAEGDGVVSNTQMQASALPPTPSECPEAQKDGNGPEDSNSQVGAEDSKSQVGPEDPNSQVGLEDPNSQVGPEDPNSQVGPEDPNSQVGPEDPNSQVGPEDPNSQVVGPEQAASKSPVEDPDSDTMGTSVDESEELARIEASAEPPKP
Method: Fusion proteins (80–120 ng/tube) were incubated for 30 min with shaking at 22° C. […] Binding was terminated by filtering homogenates through Whatman GF/B filters. Saturation isotherms were plotted using GraphPad Prism software (GraphPad Software Inc., San Diego, Calif.).

[3] = target: nuclear-enriched fraction of human placenta; assay: Binding of radiolabeled [Met^5]-enkephalin to human placenta; details: one-site model, read-out: binding affinity (Kd)
Description: A one-site model of binding was noted.

[4] = target: T2, PANC-1 nuclear (P1) homogenates (Homo sapiens, UniProt Q9NZT2); assay: Binding of [^3H]-[Met^5]-enkephalin to PANC-1 nuclear homogenates (saturation and characterization); details: for Binding, of the optimal binding at 22° C.: 2 nM ligand
T2 construct: host or cells: PANC-1; nuclear (P1) homogenates, and P2, P3 and S3 fractions in the fractionation study
T2 sequence (Q9NZT2 1-677): T1 sequence (Q9NZT2 1-677)
Method: (§2) Cell culture. PANC-1, Mia PaCa-2, BxPC-3, and Capan-1 cell lines were obtained from the American Type Culture Collection (Manassas, Va.). […] Panc-1 cells between passages 62–74 were used for the characterization studies.
(§3) Preparation of protein fractions. Cell cultures were harvested by scraping of the flasks, and cells were pelleted by centrifugation. The washed pellet was homogenized (Polytron, setting 5, 2×10 sec) in a 1:20 (wt/vol) solution of cold 50 mM Tris-HCl with 0.1 mg/ml bacitracin, 1 mg/ml leupeptin, 6 nM thiorphan, 1 mM EGTA, and 3.5 mM PMSF (pH 7.4) at 4° C.; this buffer is termed Tris/all.
(§4) Receptor binding assays. Homogenates of nuclear protein were diluted with Tris/all to the appropriate protein concentration and incubated at room temperature (22° C.) for 20 min to remove endogenous peptides. Aliquots of protein were resuspended to 0.95 ml and incubated with agitation with radioactive ligand. […] The final volume of the incubation mixture was 1 ml. Isotope incubation was terminated by rapid filtration through Whatman GF-B filters under vacuum pressure with a Brandel Cell Harvester. Filters were rinsed with ice-cold Tris/all buffer, dried at 60° C. for 1 hr and counted by liquid scintillation spectrometry (Beckman LS-2800). […] Duplicate tubes of homogenates were assayed for each concentration utilized. Protein concentrations were determined by the BioRad method with g-globulin as the standard.
as §1

[5] = target: PANC-1 subcellular fractions (P1, P2, P3, S3) (Homo sapiens, UniProt Q9NZT2)
Method: For subcellular fractionation studies, the supernatant of P1 was centrifuged at 39,000× g for 30 min to obtain a plasma membrane pellet (P2). The P2 supernatant was centrifuged overnight (100,000× g), resulting in a microsomal pellet (P3) and soluble supernatant (S3). All fractions were inspected for purity by phase-contrast microscopy.
as §4
Sucrose gradient centrifugation was performed to separate the nuclear (P1), membrane (P2), microsomal (P3), and soluble (S3) fractions (Table II).

[6] = target: BxPC-3 nuclear fraction (Homo sapiens, UniProt Q9NZT2); details: BxPC-3, log phase
Method: as §2, §3, §4

[7] = target: Capan-1 nuclear fraction (Homo sapiens, UniProt Q9NZT2); details: Capan-1, log phase
Method: as §2, §3, §4

[8] = target: MIA PaCA-2 nuclear fraction (Homo sapiens, UniProt Q9NZT2); details: MIA PaCA-2, log phase
Method: as §2, §3, §4

[9] = target: Xenografts of Capan-1 growing in nude mice (Homo sapiens, UniProt Q9NZT2); details: Capan-1 xenograft, harvested 40 days after inoculation
Method: as §4

[10] = target: human pancreatic cancer tissue (Homo sapiens, UniProt Q9NZT2)
Method: as §4
Receptor binding assays were performed as stated above.

[11] = target: SCCHN enriched nuclear preparations (Homo sapiens, UniProt Q9NZT2)
Description: (§5) Human tissue samples were representative of a variety of squamous cell carcinomas, including specimens from the oral cavity-larynx, and regional metastases. Normal mucosal specimens were obtained during uvu-lopalatopharyngoplasty.

[12] = target: normal mucosa enriched nuclear preparations (Homo sapiens, UniProt Q9NZT2); details: normal epithelium
Description: as §5

[13] = target: normal human pancreas (Homo sapiens, UniProt Q9NZT2); details: 3 normal specimens
Method: Normal tissues (as determined from histological assessment) were obtained from two females and a person. […] Samples were collected and frozen in liquid nitrogen within 1 hr of surgery. Receptor binding assays were performed as stated above.

[14] = test system: SK-N-AS human neuroblastoma cell line; assay: Cell number in SK-N-AS cultures (trypan blue, hemacytometer); type: cell-based; details: 10^−6 M, SK-N-AS cells
Method: FIG. 10 depicts histogram of cell number in cultures of SK-N-AS human neuroblastoma cells treated for 48 hr with either sterile water (CO), 10^−6 M NTX, 10^−6 M S-ODN, or scrambled oligonucleotide. Cells (6×10^3) were plated and compounds and fresh media added 24 hr and 48 hr later. After 72 hr in culture, cells were trypsinized, stained with trypan blue, and counted with a hemacytometer.
To study the function of the isolated cDNA with respect to regulation of cell growth, a 23-mer antisense S-ODN (nuclease-resistant phosphorothioate; Oligo, Etc., Bethel, Me.) targeted against a sequence containing the translation initiation site of the OGF binding protein was designed: 5′-[…]-3′ (antisense, SEQ ID NO: 17). A scrambled (control) S-ODN was also designed: 5′-[…]-3′ (SEQ ID NO: 18).
The SK-N-AS human neuroblastoma cell line (American Type Tissue Culture Collection, Manassas, Va.) was grown in Dulbecco's medium supplemented with 10% fetal calf serum. For experimentation, 6×10^3 cells/well in a 24-well plate were seeded and, 24 hr later, 10^−6 M concentrations of the antisense or the scrambled S-ODN was added. […] After 72 hr in culture, cells were trypsinized, stained with trypan blue, and counted with a hemacytometer. Data from the antisense experiments were evaluated with ANOVA, and subsequent comparisons made with the Newman-Keuls tests.

[15] = test system: IEC-6 rat small intestine epithelial cell line; assay: Cell number in IEC-6 cultures (trypan blue, hemacytometer); type: cell-based; details: 10^−6 M, 48 hr of exposure, IEC-6 cells
Method: FIG. 6 depicts histogram of cell number in cultures of IEC-6 rat intestinal epithelial cells treated for 48 hr with either sterile water (CO), 10^−6 M NTX, 10^−6 M 23-mer S-ODN (antisense), or scrambled oligoprobe (scrambled). Cells (5×10^3) were plated, and compounds and fresh media were added 24 hr and 48 hr later. After 72 hr in culture, cells were trypsinized, stained with trypan blue, and counted with a hemacytometer.
The IEC-6 rat small intestine epithelial cell line (American Type Tissue Culture Collection, Manassas, Va.) were grown in Dulbecco's medium supplemented with 10% fetal calf serum. For experiments, 5×10^3 cells/well in a 24-well plate were seeded and, 24 hr later, 10^−6 M concentrations of the antisense or the scrambled S-ODN were added. Some wells were exposed to 10^−6 NTX or an equivalent volume of sterile water. Media, S-ODNs, or drugs were changed daily. After 72 hr in culture, cells were trypsinized, stained with trypan blue, and counted with a hemacytometer; 3 wells/treatment group were assessed. The data were evaluated with ANOVA, and subsequent comparisons were made with the Newman-Keuls tests.

[16] = optimal conditions, P1 fraction

## DPDPE [[D-Pen^2, Pen^5]-enkephalin]
[1]
  competition for [^3H][Met^5]-enkephalin binding: little or no competition

## [Met^5]-enkephalin
[1]
  ability to displace [^3H][Met^5]enkephalin relative to the next ranking compound: 100 fold

## [^3H]-[Met^5]-enkephalin
[2]
  Kd: 2.8 ± 1.1 nM
[3]
  Kd: 12.3 ± 3.9 nM
[4]; 22° C.
  time to reach binding equilibrium: 60 to 75 min
[4]; PANC-1, Table IV, at least 3 independent assays
  Bmax: 28.9 ± 6.2 fmol/mg
[4]; PANC-1 Confluent, 5 days in culture
  Bmax: 7.8 ± 0.0 fmol/mg protein
[4]; PANC-1 Log phase, 3 days in culture
  Bmax: 20.7 ± 1.2 fmol/mg protein
[4]; PANC-1 Post-confluent, 7–8 days in culture
  Bmax: 35.6 ± 0.3 fmol/mg protein
[4]; PANC-1 log phase, confluent, post-confluent
  effect of length of time in culture on affinity: no effect
[4]; confluent cultures
  reduction of binding capacity in contrast to post-confluent cells: 78%
[4]; incubation at 0° C.
  Binding, of the optimal binding at 22° C.: 12%
[4]; incubation at 37° C.
  Binding, of the optimal binding at 22° C.: 21%
[4]; log-phase cultures
  reduction of binding capacity in contrast to post-confluent cells: 42%
[4]; [16]
  Nonspecific binding, of the total binding: ~52%
  maximal binding capacity (Bmax): 36.4±4.1 fmol/mg protein
[5]; P1 fraction, Nuclear
  Bmax: 21.8±4.8 fmol/mg protein
[5]; fractions enriched in P2, P3, or S3
  specific and saturable binding: No specific and saturable binding
[6]
  Bmax: 25.5 ± 9.7 fmol/mg
[7]
  Bmax: 22.7 ± 9.5 fmol/mg
[8]
  Bmax: 11.9 ± 1.5 fmol/mg
[9]
  Bmax: 4.2±1.1 fmol/mg protein
[10]; 3 further specimens
  binding recorded: non-specific and non-saturable binding
[10]; specimens from 3 patients
  Bmax: 6.6±1.2 fmol/mg protein
[11]; neoplastic specimens
  Binding capacity (Bmax): 13.6±1.9 fmol/mg protein
[11]; p<0.01
  Bmax of neoplastic specimens less than normal epithelium: 6 fold
[12]
  Binding capacity (Bmax): 80.8±32.8 fmol/mg protein
[13]
  Bmax: 46.7±27.8 fmol/mg protein

## β-endorphin
[1]; competition with [^3H]-[Met^5]-enkephalin, at least 2 independent assays
  IC50/Kd: >10^−4

## 5′-GGTCGTCCATGCTCGGCTAGAAT-3′ (DNA, all phosphorothioate, methylation of C not given here) [antisense S-ODN (SEQ ID NO: 17)]
[14]; 48 hr of exposure
  elevation of cell number from control cultures: 60%

## 5′-GACTCAGGGACTTAGCTTCATCC-3′ (DNA, all phosphorothioate, methylation of C not given here) [antisense S-ODN (SEQ ID NO: 15)]
[15]
  elevation of cell number from control cultures: 294%

## C[C@@H](NC(=O)[C@@H](N)Cc1ccc(O)cc1)C(=O)NCC(=O)N(C)[C@@H](Cc1ccccc1)C(=O)NCCO [DAMGO, [D-Ala^2, N-Me-Phe^4, Gly^5-ol]-enkephalin]
[1]
  competition for [^3H][Met^5]-enkephalin binding: little or no competition

## Nc1nc2c(ncn2[C@@H]2O[C@H](COP(=O)(O)OP(=O)(O)NP(=O)(O)O)[C@@H](O)[C@H]2O)c(=O)[nH]1 [GppNHp, guanylylimidodiphosphate]
[4]; 50, 100, or 200 μM
  effect on binding of [^3H]-[Met^5]-enkephalin: not markedly altered

## Dynorphin A1-8 (YGGFLRRI) [κ receptor ligand]
[1]
  competition for [^3H][Met^5]-enkephalin binding: little or no competition

## CC[C@]12CCN(CC3CC3)[C@H](C(=O)c3ccc(O)cc31)[C@@H]2C [EKC, ethylketocyclazocine]
[1]
  competition for [^3H][Met^5]-enkephalin binding: little or no competition

## O=C1CC[C@@]2(O)[C@H]3Cc4ccc(O)c5c4[C@@]2(CCN3CC2CC2)[C@H]1O5 [NTX, naltrexone]
[15]
  elevation of cell number from control cultures: 223%
[14]; 48 hr
  growth relative to control cultures: increased cell growth from control values
